Structures can show the parent of a compound that is named as a salt.

Broadly, the IC50 is the point on the concentration scale where inhibition reaches its midpoint. Lower therefore signals greater potency.

This experiment concerns the target T1, Bet bromodomain protein (BRD4) (Homo sapiens, UniProt O60885).
T1 construct: made in house
The experiment in a line: Bet bromodomain TR-FRET assay. The class given is binding. Conditions: 300 nM acetyl histone peptide substrate, results given as Group A/B/C. In outline: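 In-house BRD4 protein with 300 nM acetyl histone peptide in 50 mM HEPES pH 7.5, 50 mM NaCl, 500 μM CHAPS; 30 min RT, then serially diluted compound for 30 min RT. Eu-streptavidin (2 nM) and XL-665 antibody (10 nM) added for 30 min; 665/615 nm ratio read, IC50 from sigmoid dose-response fit.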
Compound `Cc1noc(C)c1-c1cc2ccc(=O)n(Cc3ccccn3)c2cc1OCCO` [Compound 80, 6-(3,5-dimethylisoxazol-4-yl)-7-(2-hydroxyethoxy)-1-(pyridin-2-ylmethyl)quinolin-2(1H)-one] yielded an IC50 not above 1 µM.
For `Cc1noc(C)c1-c1cc2ccc(=O)n(Cc3ccccn3)c2cc1OCCN1CCCC1` [Compound 81, 6-(3,5-dimethylisoxazol-4-yl)-1-(pyridin-2-ylmethyl)-7-(2-(pyrrolidin-1-yl)ethoxy)quinolin-2(1H)-one] the value was 1 to 3 µM.
Next, `Cc1noc(C)c1-c1cc2ccc(=O)n(Cc3ccccn3)c2cc1OCCN1CCNCC1` [Compound 82, 6-(3,5-dimethylisoxazol-4-yl)-7-(2-(piperazin-1-yl)ethoxy)-1-(pyridin-2-ylmethyl)quinolin-2(1H)-one]: 1 to 3 µM; `Cc1noc(C)c1-c1cc2ccc(=O)n(Cc3ccccn3)c2cc1OCc1ccncc1` [Compound 83, 6-(3,5-dimethylisoxazol-4-yl)-1-(pyridin-2-ylmethyl)-7-(pyridin-4-ylmethoxy)quinolin-2(1H)-one]: not above 1 µM.
For `Cc1noc(C)c1-c1cc2ccc(=O)n(Cc3ccccn3)c2cc1OCCCO` [Compound 84, 6-(3,5-dimethylisoxazol-4-yl)-7-(3-hydroxypropoxy)-1-(pyridin-2-ylmethyl)quinolin-2(1H)-one] the value was not above 1 µM; for `Cc1noc(C)c1-c1cc2ccc(=O)n(Cc3ccccn3)c2cc1OC(F)(F)F` [Compound 85, 6-(3,5-dimethylisoxazol-4-yl)-1-(pyridin-2-ylmethyl)-7-(trifluoromethoxy)quinolin-2(1H)-one], 1 to 3 µM.
`Cc1noc(C)c1-c1cc2ccc(=O)n(Cc3ccccn3)c2cc1OC1CCNCC1` [Compound 86, 6-(3,5-dimethylisoxazol-4-yl)-7-(piperidin-4-yloxy)-1-(pyridin-2-ylmethyl)quinolin-2(1H)-one] came in with an IC50 of more than 3 µM.
For `Cc1noc(C)c1-c1cc2ccc(=O)n(Cc3ccccn3)c2cc1OCC1CCOCC1` [Compound 87, 6-(3,5-dimethylisoxazol-4-yl)-1-(pyridin-2-ylmethyl)-7-((tetrahydro-2H-pyran-4-yl)methoxy)quinolin-2(1H)-one] the value was 1 to 3 µM.
For `Cc1noc(C)c1-c1cc2ccc(=O)n(Cc3ccccn3)c2cc1OCCC1CCNCC1` [Compound 88, 6-(3,5-dimethylisoxazol-4-yl)-7-(2-(piperidin-4-yl)ethoxy)-1-(pyridin-2-ylmethyl)quinolin-2(1H)-one] the value was 1 to 3 µM; for `Cc1noc(C)c1-c1cc2ccc(=O)n(Cc3ccccn3)c2cc1OCCC1CCNC1` (stereo not shown) [Compound 89, 6-(3,5-dimethylisoxazol-4-yl)-1-(pyridin-2-ylmethyl)-7-(2-(pyrrolidin-3-yl)ethoxy)quinolin-2(1H)-one hydrochloride], not above 1 µM.
In turn, `CCC(=O)N1CCC(CN2C(=O)COc3cc(-c4c(C)noc4C)c(OC)cc32)CC1` [Compound 90, 7-(3,5-dimethylisoxazol-4-yl)-6-methoxy-4-((1-propionylpiperidin-4-yl)methyl)-2H-benzo[b][1,4]oxazin-3(4H)-one] registered an IC50 not above 1 µM.
As to `COc1cc2c(ccc(=O)n2Cc2ccccn2)cc1-n1c(C)c[nH]c1=O` [Compound 91, 7-methoxy-6-(5-methyl-2-oxo-2,3-dihydro-1H-imidazol-1-yl)-1-(pyridin-2-ylmethyl)quinolin-2(1H)-one], the IC50 is more than 3 µM.
Next, `COc1cc2c(ccc(=O)n2Cc2ccccn2)cc1C1=C(C)C(=O)NC1=O` [Compound 92, 3-(7-methoxy-2-oxo-1-(pyridin-2-ylmethyl)-1,2-dihydroquinolin-6-yl)-4-methyl-1H-pyrrole-2,5-dione]: more than 3 µM; `COc1cc2c(cc1-c1c(C)noc1C)ncc(=O)n2Cc1ccccn1` [Compound 93, 6-(3,5-dimethylisoxazol-4-yl)-7-methoxy-1-(pyridin-2-ylmethyl)quinoxalin-2(1H)-one]: not above 1 µM; `COc1cc2c(cc1NC(=O)c1c(C)noc1C)OCC(=O)N2Cc1ccc(Cl)cc1` [Compound 94, N-(4-(4-chlorobenzyl)-6-methoxy-3-oxo-3,4-dihydro-2H-benzo [b][1,4]oxazin-7-yl)-3,5-dimethylisoxazole-4-carboxamide]: more than 3 µM.
`COc1cc2c(cc1Nc1c(C)noc1C)OCC(=O)N2Cc1ccc(Cl)cc1` [Compound 95, 4-(4-chlorobenzyl)-7-((3,5-dimethylisoxazol-4-yl)amino)-6-methoxy-2H-benzo[b][1,4]oxazin-3(4H)-one]: the IC50 is more than 3 µM.
Consider `COc1cc2c(cc1-c1c(C)noc1C)cc(CO)c(=O)n2Cc1ccccn1` [Compound 96, 6-(3,5-dimethylisoxazol-4-yl)-3-(hydroxymethyl)-7-methoxy-1-(pyridin-2-ylmethyl)quinolin-2(1H)-one], for which the IC50 was not above 1 µM.
The compound `COc1cc2c(cc1-c1c(C)noc1C)cc(CF)c(=O)n2Cc1ccccn1` [Compound 97, 6-(3,5-dimethylisoxazol-4-yl)-3-(fluoromethyl)-7-methoxy-1-(pyridin-2-ylmethyl)quinolin-2(1H)-one] yielded an IC50 not above 1 µM.
For `COc1cc2c(ccc(=O)n2Cc2ccc(-c3cnn(C)c3)cn2)cc1-c1c(C)noc1C` [Compound 98, 6-(3,5-dimethylisoxazol-4-yl)-7-methoxy-1-((5-(1-methyl-1H-pyrazol-4-yl)pyridin-2-yl)methyl)quinolin-2(1H)-one] the value was not above 1 µM; for `COc1cc2c(cc1-c1c(C)noc1C)cc(C(O)(O)C(F)(F)F)c(=O)n2Cc1ccccn1` [Compound 104, 6-(3,5-dimethylisoxazol-4-yl)-7-methoxy-1-(pyridin-2-ylmethyl)-3-(2,2,2-trifluoro-1,1-dihydroxyethyl)quinolin-2(1H)-one], not above 1 µM.
Next, `COc1cc2c(cc1-c1c(C)noc1C)c(C#N)c(C)c(=O)n2CCc1ccc(Cl)cc1` [Compound 105, 1-(4-chlorophenethyl)-6-(3,5-dimethylisoxazol-4-yl)-7-methoxy-3-methyl-2-oxo-1,2-dihydroquinoline-4-carbonitrile]: more than 3 µM; `COc1cc2c(cc1-c1c(C)noc1C)cc(CC#N)c(=O)n2CCc1ccc(Cl)cc1` [Compound 106, 2-(1-(4-chlorophenethyl)-6-(3,5-dimethylisoxazol-4-yl)-7-methoxy-2-oxo-1,2-dihydroquinolin-3-yl)acetonitrile]: not above 1 µM.

Source of the values: patent US10590118B2, “Bicyclic heterocyclic derivatives as bromodomain inhibitors” (Orion Corporation, priority 2014, dated 2020).
